Reference: PubChem BioAssay AID256 (DTP/NCI, 2004)
“And” between values parts separate entries of the source, which are not always exact repeats. Equal entries are not always repeated. Toxic doses and inconclusive results are not listed. The calls were made as follows: active = survival T/C of 150% or more; inactive = T/C below 125% in these data.

System: CD2F1 mice, L1210 leukemia ip, survival T/C
Assay: NCI In Vivo Anticancer Drug Screen. Data for tumor model L1210 Leukemia (intraperitoneal) in CD2F1 (CDF1) mice
Details: higher = longer survival
Procedure, shortened: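 Implant tumor; dose compound or vehicle; measure endpoint in both groups; report treated divided by control.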

[1] = endpoint: mean survival time, dose: 100.0 mg/kg/injection, schedule: Q04DX003 (ip), vehicle: saline with Tween-80
[2] = endpoint: mean survival time, dose: 200.0 mg/kg/injection, schedule: Q04DX003 (ip), vehicle: saline with Tween-80
[3] = endpoint: mean survival time, dose: 400.0 mg/kg/injection, schedule: Q04DX003 (ip), vehicle: saline with Tween-80
[4] = endpoint: mean survival time, dose: 100.0 mg/kg/injection, schedule: Q01DX009 (ip), vehicle: saline with Tween-80
[5] = endpoint: mean survival time, dose: 200.0 mg/kg/injection, schedule: Q01DX009 (ip), vehicle: saline with Tween-80
[6] = endpoint: mean survival time, dose: 400.0 mg/kg/injection, schedule: Q01DX009 (ip), vehicle: saline with Tween-80

Measured: T/C

O=C(O)c1ccccc1S(=O)(=O)c1ccccc1
inactive: [1] 93 % of control | [2] 88 % of control | [3] 95 % of control

CCOC(=O)c1cnc(N(C)C)nc1SC(=N)N
inactive: endpoint: mean survival time, dose: 50.0 mg/kg/injection, schedule: Q01DX009 (ip), vehicle: saline 102 % of control | endpoint: mean survival time, dose: 100.0 mg/kg/injection, schedule: Q01DX009 (ip), vehicle: saline 118 % of control | endpoint: mean survival time, dose: 100.0 mg/kg/injection, schedule: Q04DX003 (ip), vehicle: saline 106 % of control | endpoint: mean survival time, dose: 200.0 mg/kg/injection, schedule: Q04DX003 (ip), vehicle: saline 91 % of control

O=C(CNC(=O)Nc1cccc([N+](=O)[O-])c1)N/N=C/c1ccc(F)cc1
inactive: endpoint: mean survival time, dose: 50.0 mg/kg/injection, schedule: Q01DX009 (ip), vehicle: saline with Tween-80 89 % of control | [4] 93 % of control | [5] 101 % of control

CN(C)c1ccc(N=Nc2ccc([As](=O)(O)O)cc2)cc1
inactive: endpoint: mean survival time, dose: 6.25 mg/kg/injection, schedule: Q01DX009 (ip), vehicle: saline with Tween-80 91 % of control | endpoint: mean survival time, dose: 12.5 mg/kg/injection, schedule: Q01DX001 (ip), vehicle: saline with Tween-80 110 % of control | endpoint: mean survival time, dose: 12.5 mg/kg/injection, schedule: Q01DX009 (ip), vehicle: saline with Tween-80 89 % of control

C[C@@H]1C[C@H]2[C@@H]3CCC4=CC(=O)C=C[C@]4(C)[C@@]3(F)[C@@H](O)C[C@]2(C)[C@@]1(O)C(=O)CO
inactive: endpoint: mean survival time, dose: 3.12 mg/kg/injection, schedule: Q01DX009 (ip), vehicle: suspension in saline 116 % of control | endpoint: mean survival time, dose: 6.25 mg/kg/injection, schedule: Q01DX009 (ip), vehicle: suspension in saline 108 % of control | endpoint: mean survival time, dose: 12.5 mg/kg/injection, schedule: Q01DX009 (ip), vehicle: suspension in saline 108 % of control | endpoint: mean survival time, dose: 25.0 mg/kg/injection, schedule: Q01DX009 (ip), vehicle: suspension in saline 122 % of control | endpoint: mean survival time, dose: 50.0 mg/kg/injection, schedule: Q01DX009 (ip), vehicle: suspension in saline 110 % of control

CCC1(C)C(=O)c2ccccc2N(C)C1=O (stereo not given)
inactive: endpoint: mean survival time, dose: 100.0 mg/kg/injection, schedule: Q01DX001 (ip), vehicle: saline with Tween-80 95 % of control | [4] 93 % of control | endpoint: mean survival time, dose: 100.0 mg/kg/injection, schedule: Q04DX002 (ip), vehicle: saline with Tween-80 103 % of control and 106 % of control | [1] 97 % of control | endpoint: mean survival time, dose: 200.0 mg/kg/injection, schedule: Q01DX001 (ip), vehicle: saline with Tween-80 100 % of control | [5] 93 % of control and 102 % of control | endpoint: mean survival time, dose: 200.0 mg/kg/injection, schedule: Q04DX002 (ip), vehicle: saline with Tween-80 104 % of control and 110 % of control | [2] 100 % of control | endpoint: mean survival time, dose: 400.0 mg/kg/injection, schedule: Q01DX001 (ip), vehicle: saline with Tween-80 95 % of control | [6] 101 % of control and 102 % of control | endpoint: mean survival time, dose: 400.0 mg/kg/injection, schedule: Q04DX002 (ip), vehicle: saline with Tween-80 109 % of control and 110 % of control | [3] 100 % of control

S=C1SCCN1Cc1ccccc1
inactive: [4] 104 % of control | [1] 106 % of control | [5] 101 % of control | [2] 101 % of control | [6] 104 % of control | [3] 101 % of control

OC1(C(Cl)(Cl)Cl)CCCCC1
inactive: endpoint: mean survival time, dose: 100.0 mg/kg/injection, schedule: Q01DX009 (ip), vehicle: other 101 % of control | endpoint: mean survival time, dose: 200.0 mg/kg/injection, schedule: Q01DX009 (ip), vehicle: other 103 % of control | endpoint: mean survival time, dose: 400.0 mg/kg/injection, schedule: Q01DX009 (ip), vehicle: other 106 % of control

CCOC(=O)/N=C/N(C)C
inactive: endpoint: mean survival time, dose: 100.0 mg/kg/injection, schedule: Q01DX001 (ip), vehicle: saline 100 % of control | endpoint: mean survival time, dose: 200.0 mg/kg/injection, schedule: Q01DX001 (ip), vehicle: saline 109 % of control | endpoint: mean survival time, dose: 400.0 mg/kg/injection, schedule: Q01DX001 (ip), vehicle: saline 103 % of control | endpoint: median survival time, dose: 25.0 mg/kg/injection, schedule: Q04DX003 (ip), vehicle: saline with Tween-80 100 % of control | endpoint: median survival time, dose: 50.0 mg/kg/injection, schedule: Q04DX003 (ip), vehicle: saline with Tween-80 100 % of control | endpoint: median survival time, dose: 100.0 mg/kg/injection, schedule: Q04DX003 (ip), vehicle: saline with Tween-80 100 % of control
